Several values for one entry are separate records, joined by “and”; a condition that tells them apart may be missing. Identical values can stand only once.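 Compound exposure: 48 hours, 5 concentrations, 96-well plates. GI50 is the concentration that inhibits growth by half. TGI is the concentration that stops growth completely.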
Tests used:
Experiment in all cases: inhibition of tumour cell growth, NCI panel, 48 h
EKVX NSCLC = test system: EKVX NSCLC
PC-3 prostate = test system: PC-3 prostate
SK-MEL-5 melanoma = test system: SK-MEL-5 melanoma
SNB-19 CNS = test system: SNB-19 CNS
UACC-62 melanoma = test system: UACC-62 melanoma
HT29 colon = test system: HT29 colon
786-0 renal = test system: 786-0 renal
SF-268 CNS = test system: SF-268 CNS
OVCAR-5 ovarian = test system: OVCAR-5 ovarian
NCI-H522 lung = test system: NCI-H522 lung

SMILES	GI50 (EKVX NSCLC)	TGI (EKVX NSCLC)	GI50 (PC-3 prostate)	TGI (PC-3 prostate) [µM]	GI50 (SK-MEL-5 melanoma)	TGI (SK-MEL-5 melanoma) [µM]	GI50 (SNB-19 CNS)	TGI (SNB-19 CNS)	GI50 (UACC-62 melanoma)	TGI (UACC-62 melanoma)	GI50 (HT29 colon)	TGI (HT29 colon)	GI50 (786-0 renal)	TGI (786-0 renal)	GI50 (SF-268 CNS)	TGI (SF-268 CNS)	GI50 (OVCAR-5 ovarian)	TGI (OVCAR-5 ovarian)	GI50 (NCI-H522 lung)	TGI (NCI-H522 lung)
Cc1c2cc[nH]c(=O)c2c(C)c2c1[nH]c1cc(OCCN3CCN(C)CC3)ccc12	1.11 µM	10.3 µM	1.03 µM	7.48	1.18 µM	2.44	0.946 µM	11.2 µM	1.13 µM	2.9 µM	0.432 µM	2.03 µM	0.946 µM	5.09 µM	0.74 µM	7.97 µM	0.944 µM	11.6 µM	0.718 µM	2.76 µM
O=[As](O)(O)c1ccc(NCc2ccccc2)cc1		> 100 µM		> 100		> 100		> 100 µM		> 100 µM		> 100 µM		> 100 µM		> 100 µM		> 100 µM		> 100 µM
CCOc1ccc2nc(NC(=O)C(=O)C(C(=O)c3ccccc3-c3ccccc3)C3OC(=O)c4ccccc43)sc2c1 (stereo unspecified)		47.5 µM		41.7		31.3		36.3 µM		34.8 µM		43.6 µM		34.6 µM		79.5 µM		> 100 µM		32 µM
Cc1cc(C)nc(NC(N)=NCCc2ccccc2)n1	3.66 µM	89.9 µM	3.88 µM	> 100	1.75 µM	5.39	4.55 µM	> 100 µM	2.97 µM	21.4 µM	3.02 µM	> 100 µM	4.86 µM	> 100 µM	3.4 µM	41.9 µM	9.81 µM	> 100 µM	6.02 µM	65.9 µM
Cc1nc2ccc(CN(C)c3ccc(C(=O)N[C@@H](CCC(=O)O)C(=O)O)s3)cc2c(=O)[nH]1		> 100 µM		> 100	0.173 µM	> 100		> 100 µM		> 100 µM		> 100 µM		> 100 µM		> 100 µM		> 100 µM		> 100 µM
CNC(=O)c1cc(COc2nnc(Nc3ccc(Cl)cc3)c3ccoc23)ccn1	10.6 µM and > 10 µM	28.3 µM and > 10 µM	9.39 µM and > 10 µM	> 57.7	7.66 µM and 7.85 µM	> 47.1	2.88 µM and > 10 µM	21.4 µM and > 10 µM	6.3 µM and > 10 µM	30.3 µM and > 10 µM	9.45 µM and > 10 µM	31.2 µM and > 10 µM	2.36 µM and > 10 µM	6.7 µM and > 10 µM	4.66 µM and > 10 µM	26.2 µM and > 10 µM	12.3 µM and > 10 µM	38.9 µM and > 10 µM	2.85 µM and 8.83 µM	11.9 µM and > 10 µM
COC(=O)[C@@H](NC(=O)NC(=O)NC(=O)CI)C(C)C	17.2 µM	31.4 µM	16.3 µM	30.7	17.4 µM	31.6	18.8 µM	37.7 µM	14.4 µM	29.9 µM	2.01 µM	4.03 µM	11.4 µM	23.5 µM	15.1 µM	32.7 µM	13.2 µM	29.7 µM	1.69 µM	3.31 µM
